Among the data in US20220000762A1, “COMPOSITIONS FOR TREATING OXIDATIVE STRESS-ASSOCIATED SKIN DISEASES AND SKIN AGEING AND DIAGNOSIS OF OXIDATIVE STRESS-ASSOCIATED SKIN DISEASES” (priority 2019, published 2022) are antioxidant activity values, retold here.

A short description of this test: ABTS radical cation assay. In kind it is biochemical. The note with it: RoxP peptides, ABTS assay (Example 12), increased with concentration. As for the experimental part:
FIG. 4: RoxP antioxidant activity under adverse conditions. The ability of RoxP to reduce ABTS radical cations, denoted by a decrease in absorbance at 734 nm, was tested in multiple settings. Different concentrations of recombinant RoxP (rRoxP) (0.2-3.2 μM) in sodium phosphate buffer (20 mM, pH 7.4) (A), rRoxP (2.7 μM) incubated with salt solutions (B), pre-heated rRoxP (2.7 μM) incubated for 20 min in temperatures ranging from RT to 98° C. and allowed to cool down to ambient temperature prior to activity measurements (C), or rRoxP (2 μM) stored at room temperature for up to 2 weeks (D) were added to a solution of pre-formed ABTS radicals and the absorbance recorded after 30 sec.
The reduction of pre-formed ABTS radical cations in the presence of RoxP was analysed using a spectrophotometric assay previously described by Re et al. (1999 Free Radic Biol Med 26:1231-1237). 2,2′-azinobis(3-ethylbenzothiazoline-6-sulfonic acid) diammonium salt (ABTS) (Sigma-Aldrich) was initially dissolved in ddH2O to a concentration of […]. Potassium persulfate (Merck KGaA, Darmstadt, Germany) was subsequently added to a final concentration of 2.45 mM and the resulting solution kept dark and incubated overnight at RT. Formed ABTS radicals were diluted with PBS (pH 7.4) until reaching an absorbance of approximately 0.7 at 734 nm. Antioxidants (1.7 μM) were added (1:9 v/v) and the absorbance spectrum 500 to 900 nm recorded after 30 sec.

In the case of “RTLSYCAYPHYVN (Cutibacterium acnes) [RoxP-Peptide 2]”, the antioxidant activity result is given as “display antioxidant activity”.
With “VRADGYQESMVTRVLDDK (Cutibacterium acnes) [RoxP-Peptide 1]”, the antioxidant activity result was “display antioxidant activity”.
